Entries after “also recorded” stand apart in the source; their conditions may differ.

Assay [1] deals with APJ dimer (APJ-Rluc / APJ-EGFP). The experiment in a line: BRET, effect of interference peptides on APJ homodimers. The note with it: for effect on APJ dimer BRET signals / reduction of APJ dimer BRET signals: CHO cells, APJ-Rluc:APJ-EGFP 1:3, peptide 4 μM, 37 °C, four independent experiments in triplicate; for reduction of APJ dimer BRET signals: P < 0.01, one range for TMD1, 2, 3 and 4; for disruption of APJ (homo)dimerization (statement in words): interference peptides 4 μM, in vitro, by BRET and MS. In kind it is cell-based, human. The text has this:
Figure 7 The effect of interference peptides on apelin receptor (APJ) dimers. […] BRET[1] was detected as described above.

Assay [2] concerns APJ homodimer. The experiment in a line: MALDI-TOF MS of immunoprecipitated APJ complex after treatment with HIV TAT-TMD interference peptides. In kind it is binding, human. The note with it: peptide 4 μM, 60 min, 37 °C; for species detected by MALDI-TOF MS / effect of peptide on APJ homodimerization: cells transfected with APJ, anti-APJ immunoprecipitation, MALDI-TOF linear positive mode, mass range 4–10 kDa, sinapic acid; for binding to APJ (peptides encoding TMDs, MS): MALDI-TOF. An excerpt: TMDs are important for the formation of head-to-head interfaces in class A GPCR dimers. To identify dimerization interfaces in the seven TMDs of APJ, the effects of cell-penetrating interference peptides (containing the sequence of the hydrophobic transmembrane helices) on APJ homodimerization were examined by MS.
Figure 5 The effects of interference peptides on apelin receptor (APJ) homodimerization as measured by matrix assisted laser desorption […] time-of-flight (MALDI-TOF) mass spectrometry.
The identity of the TMD peptide sequences was analyzed with liquid chromatography (LC)-MS.
MS was performed to identity APJ dimer interfaces in samples treated with TMD peptides. Cells were transfected with APJ and, 48 h later, treated with or without the indicated HIV TAT-TMD fused peptides (4 μM) for 60 min at 37 °C. Extracted proteins were immunoprecipitated using an anti-APJ antibody. Protein A/G PLUS-agarose beads were incubated with proteins for 2 h and washed four times with lysis buffer. The APJ complex was eluted from beads as described previously. Then, the endogenous APJ complex was analyzed with an AXIMA matrix-assisted laser desorption/ionization time-of-flight (MALDI-TOF) system (Shimazdu) in linear positive mode. The mass range was 4–10 kDa and the matrix was Sinapic Acid (SA), 10 mg/ml (50% acetonitrile (ACN), 50% H2O, 0.1% […] (TFA)). The results were calibrated with a Shimadzu MALDI calibration kit (Laser BioLabs).

Assay [3] concerns APJ homodimers (APJ-Rluc / APJ-EGFP). The experiment in a line: BRET, effect of agonist/antagonist treatment on APJ homodimerization. In kind it is cell-based, human. As to conditions: CHO cells co-expressing APJ-Rluc and APJ-EGFP (1:1); concentration not given; four independent experiments in triplicate. As for the experimental part:
We further assessed APJ interactions by co-immunoprecipitation (Co-IP), BRET[1], and Förster resonance energy transfer (FRET). […] BRET studies were performed to confirm APJ homodimerization.
Figure 2 Assessment of apelin receptor (APJ) dimerization using co-immunoprecipitation (Co-IP) and bioluminescence resonance energy transfer (BRET) assays. (A) Assessment of APJ homodimerization with Co-IP. Chinese hamster ovary (CHO) cells were either not transfected (mock) or transfected with HA-APJ, Myc-APJ, or both (co-transfection). HA-APJ and Myc-APJ were also mixed (mix). Immunoprecipitated samples were resolved by SDS-PAGE and immunoblotted with an anti-Myc antibody (upper panel). […] (B) Assessment of APJ homodimerization with BRET[1]. (C) BRET saturation curves. (D) Assessment of effects of agonist-treatment on dimerization by BRET[1]. For BRET, four independent experiments were performed with triplicate samples and the results were expressed as the mean ± SEM of four experiments ([…] versus control group; NS, not significant versus unstimulated cells).
(§1) To monitor constitutive APJ interactions, CHO cells were transfected with APJ-Rluc and APJ-EGFP plasmids at a ratio of 1:1, 1:2, 1:3, 1:4, 1:5, and 1:6 to express a constant amount of donor-labeled protein with increasing amounts of acceptor-labeled protein. At 24 h post-transfection, cells were trypsinized and plated on a 96 well microplate for 24 h in HEPES-buffered phenol red-free medium (Invitrogen, Life Technologies). Coelenterazine h (5 μM; Promega) was added for BRET measurements using a Tristar LB941 plate reader (Berthold) with an Rluc filter (400–475 nm) and a EGFP filter (500–550 nm). To monitor the induced interactions of APJ, BRET signals were measured as described above, with slight modifications. […] To measure the effects of interference peptides on APJ dimers, CHO cells were co-transfected with APJ-Rluc and APJ-EGFP (1:3) and incubated with interference peptides corresponding to TMD1, TMD2, TMD3, TMD4, TMD5, TMD6, and TMD7 at 37 °C (4 μM), and BRET[1] detected as described above.

The test system of assay [4] is APJ dimers. The experiment in a line: BiFC-BRET, Gα-Rluc8, APJ-VN173 and APJ-VC155, G protein activation by APJ dimers. Format: cell-based, human.
From the text: To explore the novel signaling of APJ dimers, we examined the signaling of APJ dimers using BiFC-BRET. […] Cells expressing Gα-Rluc8 and APJ-Venus served as a positive control, and two negative controls (Gα-Rluc8 and APJ-VN173, Gα-Rluc8 and APJ-VC155A) were also introduced. […] (Fig. S5). […] In addition, we have measured the expression levels of donor[23] and acceptor before experiment (Fig. 10).
Kinetics of ligand-induced BRET between Gα-Rluc8 (8 subtypes), APJ-VN173, and APJ-VC155. […] (A) Gαi1-Rluc8, APJ-VN173, and APJ-VC155; (B) Gαi2-Rluc8, APJ-VN173, and APJ-VC155; (C) Gαi3-Rluc8, APJ-VN173, and APJ-VC155; (D) Gαq-Rluc8, APJ-VN173, and APJ-VC155; (E) Gαs-Rluc8, APJ-VN173, and APJ-VC155; (F) Gαo-Rluc8, APJ-VN173, and APJ-VC155; (G) Gα12-Rluc8, APJ-VN173, and APJ-VC155; H. Gα13-Rluc8, APJ-VN173, and APJ-VC155.
APJ-VN173 and APJ-VC155 were generated by fusing either the N-terminal fragment of Venus (Venus N: amino acids 1–172) or the C-terminal fragment of Venus (Venus C: amino acids 156–239) to the C-terminus of the wild-type (wt) full-length apelin receptor. Gαi1-Rluc8, Gαi2-Rluc8, Gαi3-Rluc8, Gαq-Rluc8, Gαoa-Rluc8, and Gαs-Rluc8, pET-21a(+)-GFP, FLAG-BirA-APJ, and HA-AP-APJ were constructed as described previously.
as §1

Setting [5] is: APJ dimers (APJ-VN173 + APJ-VC155), CHO cells, 1 μM apelin-13, 30 min.

In the case of “IFVNMYASVFCLTGLSFDRYLAIYGRKKRRQRRR [TMD3, HIV TAT-fused interference peptide derived from human APJ transmembrane domain 3]”, in assay [1], the “effect on APJ dimer BRET signals” value is “significantly reduced APJ dimer BRET signals”, the “reduction of APJ dimer BRET signals” value is given as 55–75% and the “disruption of APJ (homo)dimerization (statement in words)” value (from here on “disruption of APJ (homo)dimerization”) is recorded as “disrupted APJ dimerization; also recorded: can effectively disrupt the formation of APJ homodimers; also recorded: disrupted APJ homodimerization in vitro”. Further, in assay [2], the “species detected by MALDI-TOF MS / effect of peptide on APJ homodimerization” value is “TMD3, TMD3 dimers, TMD3 tetramers, APJ, [APJ + TMD3], APJ dimers, and [APJ + TMD3] dimers were detected”; the “binding to APJ (peptides encoding TMDs, MS)” value (“binding to APJ” for short) is on record as “can bind to APJ”.
“LMNIFPYCTCISYVNSCLNPFLYYGRKKRRQRRR [TMD7, HIV TAT-fused interference peptide derived from human APJ transmembrane domain 7]”: in assay [1], the “effect on APJ dimer BRET signals” value is “no significant effect”; the “disruption of APJ (homo)dimerization” value is “but not TMD5, 6, and 7, disrupted APJ dimerization”. Moreover, in assay [2], the “species detected by MALDI-TOF MS / effect of peptide on APJ homodimerization” value was “lacked the effect demonstrated by TMD1, 2, 3, and 4; also recorded: TMD7, APJ, and APJ dimers were detected”.
Regarding “VSSTTVGFVVPFTIMLTCYFFIAYGRKKRRQRRR [TMD5, HIV TAT-fused interference peptide derived from human APJ transmembrane domain 5]”, in assay [1], the “effect on APJ dimer BRET signals” value was “no significant effect”; the “disruption of APJ (homo)dimerization” value was “but not TMD5, 6, and 7, disrupted APJ dimerization”. Besides, the “species detected by MALDI-TOF MS / effect of peptide on APJ homodimerization” value in assay [2] is “lacked the effect demonstrated by TMD1, 2, 3, and 4; also recorded: TMD5, APJ, and APJ dimers were detected”.
As to “YGRKKRRQRRRFIASLAVADLTFVVTLPLWATYT [TMD2, HIV TAT-fused interference peptide derived from human APJ transmembrane domain 2]”, in assay [1], the “effect on APJ dimer BRET signals” value is given as “significantly reduced APJ dimer BRET signals”, the “reduction of APJ dimer BRET signals” value is on record as 55–75% and the “disruption of APJ (homo)dimerization” value is given as “disrupted APJ dimerization; also recorded: can effectively disrupt the formation of APJ homodimers; also recorded: disrupted APJ homodimerization in vitro”. In assay [2], the “species detected by MALDI-TOF MS / effect of peptide on APJ homodimerization” value is “TMD2, TMD2 dimers, TMD2 tetramers, APJ, [APJ + TMD2], APJ dimers, and [APJ + TMD2] dimers were detected”; the “binding to APJ” value is “can bind to APJ”.
On to “YGRKKRRQRRRRLLSIIVVLVVTFALCWMPYHLV [TMD6, HIV TAT-fused interference peptide derived from human APJ transmembrane domain 6]”, for which, in assay [1], the “effect on APJ dimer BRET signals” value is “no significant effect”; the “disruption of APJ (homo)dimerization” value is “but not TMD5, 6, and 7, disrupted APJ dimerization”. Besides, the “species detected by MALDI-TOF MS / effect of peptide on APJ homodimerization” value in assay [2] was “lacked the effect demonstrated by TMD1, 2, 3, and 4; also recorded: TMD6, APJ, and APJ dimers were detected”.
For the substance “YGRKKRRQRRRVSGAVATAVLWVLAALLAMPVMV [TMD4, HIV TAT-fused interference peptide derived from human APJ transmembrane domain 4]”, in assay [1], the “effect on APJ dimer BRET signals” value was “significantly reduced APJ dimer BRET signals”, the “reduction of APJ dimer BRET signals” value is reported as 55–75% and the “disruption of APJ (homo)dimerization” value is given as “disrupted APJ dimerization; also recorded: can effectively disrupt the formation of APJ homodimers; also recorded: disrupted APJ homodimerization in vitro”. In assay [2], the “species detected by MALDI-TOF MS / effect of peptide on APJ homodimerization” value is “TMD4, TMD4 dimers, TMD4 tetramers, APJ, [APJ + TMD4], APJ dimers, and [APJ + TMD4] dimers were detected”; the “binding to APJ” value is listed as “can bind to APJ”.
In the case of [Ala13]apelin-13, the “BRET signal versus unstimulated cells (APJ homodimer formation)” value in assay [3] is on record as “not significantly different to those of unstimulated cells”.
apelin-13: the “BRET signal versus unstimulated cells (APJ homodimer formation)” value in assay [3] is given as “not significantly different to those of unstimulated cells”. In assay [4] (setting [5]), the “G protein activation, Gα12” value is “not Gαi1, Gαi2, Gαs, Gα12, Gα13, and Gαo”; the “G protein activation, Gα13” value was “not Gαi1, Gαi2, Gαs, Gα12, Gα13, and Gαo”; the “G protein activation, Gαi1” value is “not Gαi1, Gαi2, Gαs, Gα12, Gα13, and Gαo”; the “G protein activation, Gαi2” value is “not Gαi1, Gαi2, Gαs, Gα12, Gα13, and Gαo”. Moreover, in assay [4] (setting [5]), the “G protein activation, Gαi3” value was “activate only Gαi3 and Gαq”; the “G protein activation, Gαo” value is “not Gαi1, Gαi2, Gαs, Gα12, Gα13, and Gαo”; the “G protein activation, Gαq” value is “activate only Gαi3 and Gαq”; the “G protein activation, Gαs” value is “not Gαi1, Gαi2, Gαs, Gα12, Gα13, and Gαo”. In addition, the “ligand-induced BRET change, cells expressing APJ tagged with VN173 and VC155” value in assay [4] (Gα-Rluc8 (8 subtypes), CHO cells, 1 μM apelin-13) is “an increase in BRET was observed only for Gαi3 and Gαq”. For the same substance, in assay [4] (Gα-Rluc8 with APJ-VN173 only or APJ-VC155 only, 1 μM apelin-13), the “ligand-induced BRET change, negative controls” value was “No changes in BRET were observed”.

Values taken from article PMC5238433 (Scientific Reports, 2017).
